Experiments:
[1] = target: T1, LRRK2 kinase in SH-SY5Y cells over-expressing recombinant full length LRRK2 (Homo sapiens, UniProt Q5S007); assay: Recombinant cellular LRRK2 AlphaScreen assay (LRRK2 Ser935 phosphorylation); type: cell-based; details: 60 min
T1 construct: A BacMam virus expressing full length recombinant LRRK2 was purchased from Invitrogen; host or cells: SH-SY5Y human neuroblastoma cells transduced with BacMam LRRK2 virus
Procedure, shortened: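 SH-SY5Y cells transduced with BacMam full-length LRRK2 (MOI 50) for 24 h, then treated 60 min at 37 °C with compound (11-point 1:4 series, top 10 uM, 0.1% DMSO). Lysates probed by AlphaScreen for pSer935 vs total LRRK2; values fitted to a sigmoidal dose-response model.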

[2] = target: T2, full length G2019 human LRRK2 (Homo sapiens, UniProt Q5S007, R50H); assay: Full length G2019 human LRRK2 inhibition mass spectrometry assay; type: biochemical; details: LRRKtide to phospho-LRRKtide conversion, RapidFire MS, 2 mM ATP
T2 construct: made in house; host or cells: HEK293 6E cells transduced with BacMam virus (virus generated in Sf9 cells)
Procedure, shortened: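 Purified full-length Flag-tagged G2019 LRRK2, ~25 nM, with 25 μM LRRKtide and 2 mM ATP in 50 mM Hepes pH 7.2, 10 mM MgCl2, 150 mM NaCl, 1 h at room temperature. Quenched with formic acid; phospho- and unphosphorylated LRRKtide measured by RapidFire MS. pIC50 from 4-parameter fit of % conversion, 11 points, top 100 μM.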

T2 sequence (Q5S007 with tags, fused parts or gaps R50H): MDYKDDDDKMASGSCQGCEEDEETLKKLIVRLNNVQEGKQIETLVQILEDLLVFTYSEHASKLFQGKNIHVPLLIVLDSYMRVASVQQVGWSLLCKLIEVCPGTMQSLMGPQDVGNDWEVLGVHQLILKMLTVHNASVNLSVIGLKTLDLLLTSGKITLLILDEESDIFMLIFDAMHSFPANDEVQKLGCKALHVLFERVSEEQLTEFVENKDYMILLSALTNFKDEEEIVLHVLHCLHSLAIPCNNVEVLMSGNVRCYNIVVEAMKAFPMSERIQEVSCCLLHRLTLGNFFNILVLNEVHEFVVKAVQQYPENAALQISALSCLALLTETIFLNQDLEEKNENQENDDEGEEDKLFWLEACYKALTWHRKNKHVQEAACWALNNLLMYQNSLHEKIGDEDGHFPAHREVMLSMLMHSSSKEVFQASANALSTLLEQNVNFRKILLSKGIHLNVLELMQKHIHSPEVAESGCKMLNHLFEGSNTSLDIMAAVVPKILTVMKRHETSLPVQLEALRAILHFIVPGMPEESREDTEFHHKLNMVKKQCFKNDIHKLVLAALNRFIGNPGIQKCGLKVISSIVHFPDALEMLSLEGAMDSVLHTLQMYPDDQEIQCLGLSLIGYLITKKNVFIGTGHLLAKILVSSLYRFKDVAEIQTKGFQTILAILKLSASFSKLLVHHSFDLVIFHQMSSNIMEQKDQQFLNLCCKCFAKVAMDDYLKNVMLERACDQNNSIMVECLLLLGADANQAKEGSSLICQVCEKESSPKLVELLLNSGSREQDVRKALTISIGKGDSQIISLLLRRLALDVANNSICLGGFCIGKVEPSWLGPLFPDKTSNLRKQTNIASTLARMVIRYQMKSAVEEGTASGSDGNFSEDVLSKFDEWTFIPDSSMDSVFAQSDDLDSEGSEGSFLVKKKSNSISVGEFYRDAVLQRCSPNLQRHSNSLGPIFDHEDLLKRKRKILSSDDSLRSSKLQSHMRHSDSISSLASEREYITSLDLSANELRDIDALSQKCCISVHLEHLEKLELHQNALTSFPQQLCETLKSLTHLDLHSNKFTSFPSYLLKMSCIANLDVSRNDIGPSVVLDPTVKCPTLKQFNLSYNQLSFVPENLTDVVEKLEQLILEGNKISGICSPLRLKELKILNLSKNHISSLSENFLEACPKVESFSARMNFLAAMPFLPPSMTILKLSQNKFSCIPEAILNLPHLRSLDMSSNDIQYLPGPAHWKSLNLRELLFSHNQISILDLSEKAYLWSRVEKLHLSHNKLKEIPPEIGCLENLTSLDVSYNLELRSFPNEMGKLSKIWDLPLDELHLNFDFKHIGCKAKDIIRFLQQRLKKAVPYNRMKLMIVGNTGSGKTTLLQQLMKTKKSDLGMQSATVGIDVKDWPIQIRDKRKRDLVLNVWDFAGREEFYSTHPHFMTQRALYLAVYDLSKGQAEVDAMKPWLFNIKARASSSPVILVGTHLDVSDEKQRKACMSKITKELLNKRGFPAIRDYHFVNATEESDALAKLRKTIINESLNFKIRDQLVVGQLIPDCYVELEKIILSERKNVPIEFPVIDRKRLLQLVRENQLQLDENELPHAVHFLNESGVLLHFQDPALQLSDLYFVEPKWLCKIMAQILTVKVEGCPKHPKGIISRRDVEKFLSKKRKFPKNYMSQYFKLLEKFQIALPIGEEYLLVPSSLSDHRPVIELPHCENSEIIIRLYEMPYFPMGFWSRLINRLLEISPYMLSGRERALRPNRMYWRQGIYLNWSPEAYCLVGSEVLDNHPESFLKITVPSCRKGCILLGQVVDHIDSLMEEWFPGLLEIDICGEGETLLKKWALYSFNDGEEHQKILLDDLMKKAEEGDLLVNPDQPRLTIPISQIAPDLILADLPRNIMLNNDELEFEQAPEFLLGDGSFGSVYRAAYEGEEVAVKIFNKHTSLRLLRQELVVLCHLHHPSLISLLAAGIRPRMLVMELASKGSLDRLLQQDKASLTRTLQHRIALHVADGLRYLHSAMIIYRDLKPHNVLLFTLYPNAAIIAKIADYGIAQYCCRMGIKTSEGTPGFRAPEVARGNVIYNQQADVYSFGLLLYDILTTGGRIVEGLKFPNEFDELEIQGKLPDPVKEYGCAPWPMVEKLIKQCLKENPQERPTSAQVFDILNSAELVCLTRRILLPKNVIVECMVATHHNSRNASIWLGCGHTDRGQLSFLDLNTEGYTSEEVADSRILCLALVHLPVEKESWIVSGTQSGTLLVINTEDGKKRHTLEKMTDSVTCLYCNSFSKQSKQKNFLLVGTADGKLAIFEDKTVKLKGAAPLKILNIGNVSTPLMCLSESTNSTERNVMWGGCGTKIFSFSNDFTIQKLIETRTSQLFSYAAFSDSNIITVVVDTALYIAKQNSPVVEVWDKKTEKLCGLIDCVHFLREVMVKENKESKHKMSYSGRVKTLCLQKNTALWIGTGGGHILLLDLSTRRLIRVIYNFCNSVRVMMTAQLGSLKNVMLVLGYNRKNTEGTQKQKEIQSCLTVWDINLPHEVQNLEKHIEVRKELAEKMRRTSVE
T1 sequence (Q5S007 whole entry): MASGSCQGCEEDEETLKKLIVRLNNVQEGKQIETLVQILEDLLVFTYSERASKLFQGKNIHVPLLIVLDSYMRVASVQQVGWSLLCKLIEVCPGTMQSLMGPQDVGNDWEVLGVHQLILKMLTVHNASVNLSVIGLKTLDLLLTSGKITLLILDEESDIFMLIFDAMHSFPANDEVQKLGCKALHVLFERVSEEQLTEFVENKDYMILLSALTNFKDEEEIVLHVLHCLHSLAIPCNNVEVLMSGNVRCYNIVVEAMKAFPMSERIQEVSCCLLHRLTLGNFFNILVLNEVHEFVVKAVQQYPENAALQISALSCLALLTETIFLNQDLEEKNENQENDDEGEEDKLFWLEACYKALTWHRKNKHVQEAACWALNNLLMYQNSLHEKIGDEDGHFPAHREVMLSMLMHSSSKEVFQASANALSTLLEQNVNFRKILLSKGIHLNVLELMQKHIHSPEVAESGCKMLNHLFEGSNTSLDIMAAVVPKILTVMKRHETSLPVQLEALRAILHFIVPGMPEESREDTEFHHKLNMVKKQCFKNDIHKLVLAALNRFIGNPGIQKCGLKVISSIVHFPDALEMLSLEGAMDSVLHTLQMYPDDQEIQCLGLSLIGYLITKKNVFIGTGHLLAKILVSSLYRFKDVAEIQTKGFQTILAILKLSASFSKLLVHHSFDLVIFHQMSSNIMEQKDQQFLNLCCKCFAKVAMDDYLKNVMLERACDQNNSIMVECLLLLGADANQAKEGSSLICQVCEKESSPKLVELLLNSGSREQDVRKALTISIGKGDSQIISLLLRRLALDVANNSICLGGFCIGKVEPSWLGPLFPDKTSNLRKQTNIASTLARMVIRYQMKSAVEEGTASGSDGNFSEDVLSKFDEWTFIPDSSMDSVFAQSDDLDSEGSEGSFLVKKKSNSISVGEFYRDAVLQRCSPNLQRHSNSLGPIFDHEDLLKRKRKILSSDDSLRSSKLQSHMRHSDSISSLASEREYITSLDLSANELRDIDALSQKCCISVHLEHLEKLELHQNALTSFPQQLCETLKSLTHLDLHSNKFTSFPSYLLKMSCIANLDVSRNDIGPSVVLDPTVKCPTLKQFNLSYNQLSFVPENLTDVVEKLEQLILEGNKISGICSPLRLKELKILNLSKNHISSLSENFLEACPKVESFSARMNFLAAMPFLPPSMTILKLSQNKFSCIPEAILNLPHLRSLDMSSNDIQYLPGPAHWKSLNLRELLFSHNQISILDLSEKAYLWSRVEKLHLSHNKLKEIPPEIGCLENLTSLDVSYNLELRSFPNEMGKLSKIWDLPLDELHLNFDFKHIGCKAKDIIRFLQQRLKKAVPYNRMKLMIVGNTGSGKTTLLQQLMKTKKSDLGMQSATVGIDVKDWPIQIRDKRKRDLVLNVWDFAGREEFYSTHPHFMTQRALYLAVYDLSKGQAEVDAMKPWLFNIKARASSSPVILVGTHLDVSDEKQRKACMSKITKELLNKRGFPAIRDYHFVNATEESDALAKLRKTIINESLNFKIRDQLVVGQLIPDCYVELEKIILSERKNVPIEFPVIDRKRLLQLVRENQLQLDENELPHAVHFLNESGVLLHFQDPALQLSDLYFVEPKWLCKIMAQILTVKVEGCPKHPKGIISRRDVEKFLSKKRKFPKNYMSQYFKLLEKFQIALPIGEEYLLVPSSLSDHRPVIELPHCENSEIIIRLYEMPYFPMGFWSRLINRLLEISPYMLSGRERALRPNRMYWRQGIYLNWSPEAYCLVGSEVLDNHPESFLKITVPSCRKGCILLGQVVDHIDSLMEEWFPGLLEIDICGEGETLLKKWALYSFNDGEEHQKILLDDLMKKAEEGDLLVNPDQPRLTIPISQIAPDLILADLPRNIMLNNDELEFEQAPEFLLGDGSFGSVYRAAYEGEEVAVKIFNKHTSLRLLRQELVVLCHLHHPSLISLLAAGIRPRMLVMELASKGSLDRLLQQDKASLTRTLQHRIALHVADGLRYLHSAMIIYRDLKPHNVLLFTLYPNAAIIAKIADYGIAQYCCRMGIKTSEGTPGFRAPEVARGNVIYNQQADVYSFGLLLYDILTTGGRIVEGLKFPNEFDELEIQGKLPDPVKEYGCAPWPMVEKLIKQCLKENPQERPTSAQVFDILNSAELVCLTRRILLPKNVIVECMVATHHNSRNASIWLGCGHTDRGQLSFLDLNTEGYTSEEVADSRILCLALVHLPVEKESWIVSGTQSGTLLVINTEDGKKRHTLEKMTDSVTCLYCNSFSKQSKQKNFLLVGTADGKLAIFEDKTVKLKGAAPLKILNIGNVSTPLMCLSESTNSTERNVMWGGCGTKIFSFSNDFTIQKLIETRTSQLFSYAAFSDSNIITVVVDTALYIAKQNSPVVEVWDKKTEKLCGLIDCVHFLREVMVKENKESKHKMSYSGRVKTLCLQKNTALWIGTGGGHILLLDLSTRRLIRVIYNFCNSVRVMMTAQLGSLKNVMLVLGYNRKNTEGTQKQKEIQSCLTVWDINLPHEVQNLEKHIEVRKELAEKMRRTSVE

For `Cc1c2c(nn1C1CCOCC1)OCCC(C1CC1)Nc1nc(ncc1Cl)N2` (single isomer, unassigned) [E293, 14-Chloro-11-cyclopropyl-4-methyl-5-(oxan-4-yl)-8-oxa-2,5,6,12,16,17-hexaazatricyclo[11.3.1.0^3,7]heptadeca-1(16),3,6,13(17),14-pentaene], the IC50 [1] was ≤ 100 nM and the IC50 [2] was ≤ 100 nM.
For `Cc1c2c(nn1C(C)(C)C(=O)O)OCCCNc1nc(ncc1Cl)N2` [E189, 2-{14-Chloro-4-methyl-8-oxa-2,5,6,12,16,17-hexaazatricyclo [11.3.1.0^3,7]heptadeca-1(16),3,6,13(17),14-pentaen-5-yl}-2-methylpropanoic acid], the IC50 [1] was > 10000 nM and the IC50 [2] was ≤ 10000 nM.
With `Clc1cnc2nc1NCCCOc1nn(C3CCOC3)c(Cl)c1N2` (single isomer, unassigned) [E145, 4,14-Dichloro-5-(oxolan-3-yl)-8-oxa-2,5,6,12, 16,17-hexaaza tricyclo[11.3.1.0^3,7]heptadeca-1(16),3,6,13(17), 14-pentaene] the IC50 [1] was ≤ 100 nM and the IC50 [2] was ≤ 100 nM.
`Cc1c2c(nn1C1CCN(C3COC3)CC1F)OCCCNc1nc(ncc1Cl)N2` (single isomer, unassigned) [E61, trans-14-chloro-5-[3-fluoro-1-(oxetan-3-yl)piperidin-4-yl]-4-methyl-8-oxa-2,5,6,12,16,17-hexaazatricyclo[11.3.1.0^3,7]heptadeca-1(16),3,6,13(17),14-pentaene] was tested, and the IC50 [1] was ≤ 100 nM and the IC50 [2] was ≤ 100 nM.
For `FC(F)(F)c1cnc2nc1NCCCOc1nn(C3CCCOC3)cc1N2` (stereo not shown) [E130, 5-(Oxan-3-yl)-14-(trifluoromethyl)-8-oxa-2,5,6,12,16,17-hexaaza tricyclo[11.3.1.0^3,7]heptadeca-1(16),3,6,13(17),14-pentaene], the IC50 [1] was ≤ 100 nM and the IC50 [2] was ≤ 100 nM.
`Cc1c2c(nn1C1CCOCC1)OCCCNc1nc(ncc1Br)N2` [E367, 14-Bromo-4-methyl-5-(oxan-4-yl)-8-oxa-2,5,6,12,16,17-hexaaza tricyclo[11.3.1.0^3,7]heptadeca-1(16),3,6,13(17),14-pentaene] was tested, and the IC50 [1] was ≤ 100 nM and the IC50 [2] was ≤ 100 nM.
For `Cc1c2c(nn1C1COCCC1(F)F)OCCCNc1nc(ncc1Cl)N2` (single isomer, unassigned) [E302, 14-Chloro-5-(4,4-difluorooxan-3-yl)-4-methyl-8-oxa-2,5,6,12,16,17-hexaazatricyclo[11.3.1.0^3,7]heptadeca-1(16),3,6,13(17),14-pentaene], the IC50 [1] was ≤ 100 nM and the IC50 [2] was ≤ 100 nM.
With `COC1CNc2nc(ncc2Cl)Nc2c(nn(C3CC(C)OC(C)C3)c2C)OC1` (single isomer, unassigned) [E198, 14-Chloro-5-(2,6-dimethyloxan-4-yl)-10-methoxy-4-methyl-8-oxa-2,5,6,12,16,17-hexaazatricyclo[11.3.1.0^3,7] heptadeca-1(16),3,6,13(17),14-pentaene] the IC50 [1] was ≤ 100 nM and the IC50 [2] was ≤ 100 nM.
With `CCc1c2c(nn1C1CCOCC1)OCC[C@@H](C)Nc1nc(ncc1Cl)N2` [E399, (11R)-14-Chloro-4-ethyl-11-methyl-5-(oxan-4-yl)-8-oxa-2,5,6,12,16,17-hexaazatricyclo[11.3.1.0^3,7]heptadeca-1(16),3,6,13(17),14-pentaene] the IC50 [1] was ≤ 100 nM and the IC50 [2] was ≤ 100 nM.
For `COC1CNc2nc(ncc2Cl)Nc2c(nn(C3CC4CCC(C3)O4)c2C)OC1` (single isomer, unassigned) [E245, 14-Chloro-10-methoxy-4-methyl-5-{8-oxabicyclo[3.2.1]octan-3-yl}-8-oxa-2,5,6,12,16,17-hexaazatricyclo [11.3.1.0^3,7]heptadeca-1(16),3,6,13(17),14-pentaene], the IC50 [1] was ≤ 100 nM and the IC50 [2] was ≤ 100 nM.
For `Cc1c2c(nn1C1CC(N3C[C@@H]4C[C@H]3CO4)C1)OCCCNc1nc(ncc1Cl)N2` (stereo partly drawn) [E311, 14-Chloro-4-methyl-5-{3-[(1S,4S)-2-oxa-5-azabicyclo[2.2.1]heptan-5-yl]-cyclobutyl}-8-oxa-2,5,6,12,16,17-hexaazatricyclo [11.3.1.0^3,7]heptadeca-1(16),3,6,13(17),14-pentaene], the IC50 [1] was ≤ 100 nM and the IC50 [2] was ≤ 100 nM.
With `C#Cc1cnc2nc1N[C@H](C)CCOc1nn(C3CCOCC3)c(C)c1N2` [E401, (11R)-14-Ethynyl-4,11-dimethyl-5-(oxan-4-yl)-8-oxa-2,5,6,12,16,17-hexaazatricyclo[11.3.1.0^3,7]heptadeca-1(16),3,6,13(17),14-pentaene] the IC50 [1] was ≤ 100 nM and the IC50 [2] was ≤ 100 nM.
For `Cc1c2c(nn1C1COC1)OCCCNc1nc(ncc1Br)N2` [E66, 14-Bromo-4-methyl-5-(oxetan-3-yl)-8-oxa-2,5,6,12,16,17-hexaazatricyclo[11.3.1.0^3,7]heptadeca-1(16),3,6,13(17),14-pentaene], the IC50 [1] was ≤ 100 nM and the IC50 [2] was ≤ 100 nM.
`Cc1c2c(nn1C(C)C1CCOCC1)OCCC(C)Nc1nc(ncc1Cl)N2` (single isomer, unassigned) [E183, 14-Chloro-4,11-dimethyl-5-[1-(oxan-4-yl)ethyl]-8-oxa-2,5,6,12,16,17-hexaazatricyclo[11.3.1.0^3,7]heptadeca-1(16),3,6,13(17),14-pentaene] was tested, and the IC50 [1] was ≤ 100 nM and the IC50 [2] was ≤ 100 nM.
`Cc1c2c(nn1C1CCOCC1)OCCC(C(F)F)Nc1nc(ncc1Cl)N2` (single isomer, unassigned) [E88, 14-chloro-11-(difluoromethyl)-4-methyl-5-(oxan-4-yl)-8-oxa-2,5,6, 12,16,17-hexaazatricyclo[11.3.1.0^3,7]heptadeca-1(16),3,6,13(17),14-pentaene] was tested, and the IC50 [1] was ≤ 100 nM and the IC50 [2] was ≤ 100 nM.
For `Cc1c2c(nn1C1CCOCC1)OCC(F)(F)CNc1nc(ncc1Cl)N2` [E377, 14-Chloro-10,10-difluoro-4-methyl-5-(oxan-4-yl)-8-oxa-2,5,6,12,16,17-hexaazatricyclo[11.3.1.0^3,7]heptadeca-1(16),3,6,13(17),14-pentaene], the IC50 [1] was ≤ 100 nM and the IC50 [2] was ≤ 100 nM.
In the case of `Cc1c2c(nn1C1CCC(N3C[C@H]4C[C@@H]3CO4)CC1)OCCCNc1nc(ncc1Cl)N2` (single isomer, unassigned) [E48], the IC50 [1] is reported as ≤ 100 nM and the IC50 [2] is reported as ≤ 100 nM.
With `COCC1CCOc2nn(C3CCOCC3F)c(C)c2Nc2ncc(Cl)c(n2)N1` (single isomer, unassigned) [E351, 14-Chloro-5-(3-fluorooxan-4-yl)-11-(methoxymethyl)-4-methyl-8-oxa-2,5,6,12,16,17-hexaazatricyclo [11.3. 1.0^3,7]heptadeca-1(16),3,6,13(17),14-pentaene] the IC50 [1] was ≤ 100 nM and the IC50 [2] was ≤ 100 nM.
In the case of `Cc1c2c(nn1C1CCOCC1)OCC[C@@H](C)Nc1nc(ncc1Cl)N2` [E6, (11R)-14-Chloro-4,11-dimethyl-5-(oxan-4-yl)-8-oxa-2,5,6,12,16,17-hexaazatricyclo [11.3.1.0^3,7]heptadeca-1(16),3,6,13(17),14-pentaene], the IC50 [1] is reported as ≤ 100 nM and the IC50 [2] is reported as ≤ 100 nM.
For `Cc1c2c(nn1C1CCN(C3COC3)CC1(F)F)OCC[C@@H](C)Nc1nc(ncc1Cl)N2` (stereo partly drawn) [E411, (11R)-14-Chloro-5-[3,3-difluoro-1-(oxetan-3-yl)piperidin-4-yl]-4,11-dimethyl-8-oxa-2,5,6,12,16,17-hexaazatricyclo[11.3.1. 0^3,7]heptadeca-1(16),3,6,13(17),14-pentaene], the IC50 [1] was ≤ 100 nM and the IC50 [2] was ≤ 100 nM.
For `Cc1c2c(nn1C1CCOCC1)OCCC(C(F)(F)F)Nc1nc(ncc1Cl)N2` (single isomer, unassigned) [E192, 14-Chloro-4-methyl-5-(oxan-4-yl)-11-(trifluoromethyl)-8-oxa-2,5,6,12,16,17-hexaazatricyclo[11.3.1.0^3,7] heptadeca-1(16),3,6,13(17),14-pentaene], the IC50 [1] was ≤ 100 nM and the IC50 [2] was ≤ 100 nM.
With `Cc1c2c(nn1C1CCOCC1)OCC(F)C(C)Nc1nc(ncc1Cl)N2` (single isomer, unassigned) [E64, 14-Chloro-10-fluoro-4,11-dimethyl-5-(oxan-4-yl)-8-oxa-2,5,6,12, 16,17-hexaazatricyclo[11.3.1.0^3,7]heptadeca-1(16),3,6,13(17),14-pentaene] the IC50 [1] was ≤ 100 nM and the IC50 [2] was ≤ 100 nM.
In the case of `Cc1c2c(nn1C1CCOCC1F)OC[C@@H](F)[C@@H](C)Nc1nc(ncc1Cl)N2` (stereo partly drawn) [E387, (10S, 11R)-14-Chloro-10-fluoro-5-(3-fluorooxan-4-yl)-4,11-dimethyl-8-oxa-2,5,6,12,16,17-hexaazatricyclo[11.3.1.0^3,7] heptadeca-1(16),3,6,13(17),14-pentaene], the IC50 [1] is reported as ≤ 100 nM and the IC50 [2] is reported as ≤ 100 nM.
`Cc1c2c(nn1C1CC(N3CCC(F)(F)C3)C1)OCCCNc1nc(ncc1Cl)N2` (stereo not shown) [E312, 14-Chloro-5-[3-(3,3-difluoropyrrolidin-1-yl)cyclobutyl]-4-methyl-8-oxa-2,5,6,12,16,17-hexaazatricyclo[11.3.1.0^3,7] heptadeca-1(16),3,6,13(17),14-pentaene] was tested, and the IC50 [1] was ≤ 100 nM and the IC50 [2] was 100000 nM.
`Cc1c2c(nn1C1CN(C3CCOCC3)C1)OCCCNc1nc(ncc1Cl)N2` [E366, 14-Chloro-4-methyl-5-[1-(oxan-4-yl)azetidin-3-yl]-8-oxa-2,5,6,12, 16,17-hexaazatricyclo[11.3.1.0^3,7]heptadeca-1(16),3,6,13(17),14-pentaene] was tested, and the IC50 [1] was ≤ 100 nM and the IC50 [2] was ≤ 100 nM.
With `Cc1c2c(nn1CCN1CCC(F)(F)C1)OCCC(C)Nc1nc(ncc1Cl)N2` (single isomer, unassigned) [E215, 14-Chloro-5-[2-(3,3-difluoropyrrolidin-1-yl)ethyl]-4,11-dimethyl-8-oxa-2,5,6,12,16,17-hexaazatricyclo [11.3.1.0^3,7]heptadeca-1(16),3,6,13(17),14-pentaene] the IC50 [1] was ≤ 100 nM and the IC50 [2] was ≤ 100 nM.

From patent US20200392158A1, “INHIBITORS OF LEUCINE RICH REPEAT KINASE 2” (GLAXOSMITHKLINE INTELLECTUAL PROPERTY DEVELOPMENT LIMITED, priority 2017, published 2020)
